For one assay, the target named is T1, human recombinant GR (Homo sapiens, UniProt P04150).
T1 construct: purchased PanVera P2812
T1 sequence (P04150 1-777): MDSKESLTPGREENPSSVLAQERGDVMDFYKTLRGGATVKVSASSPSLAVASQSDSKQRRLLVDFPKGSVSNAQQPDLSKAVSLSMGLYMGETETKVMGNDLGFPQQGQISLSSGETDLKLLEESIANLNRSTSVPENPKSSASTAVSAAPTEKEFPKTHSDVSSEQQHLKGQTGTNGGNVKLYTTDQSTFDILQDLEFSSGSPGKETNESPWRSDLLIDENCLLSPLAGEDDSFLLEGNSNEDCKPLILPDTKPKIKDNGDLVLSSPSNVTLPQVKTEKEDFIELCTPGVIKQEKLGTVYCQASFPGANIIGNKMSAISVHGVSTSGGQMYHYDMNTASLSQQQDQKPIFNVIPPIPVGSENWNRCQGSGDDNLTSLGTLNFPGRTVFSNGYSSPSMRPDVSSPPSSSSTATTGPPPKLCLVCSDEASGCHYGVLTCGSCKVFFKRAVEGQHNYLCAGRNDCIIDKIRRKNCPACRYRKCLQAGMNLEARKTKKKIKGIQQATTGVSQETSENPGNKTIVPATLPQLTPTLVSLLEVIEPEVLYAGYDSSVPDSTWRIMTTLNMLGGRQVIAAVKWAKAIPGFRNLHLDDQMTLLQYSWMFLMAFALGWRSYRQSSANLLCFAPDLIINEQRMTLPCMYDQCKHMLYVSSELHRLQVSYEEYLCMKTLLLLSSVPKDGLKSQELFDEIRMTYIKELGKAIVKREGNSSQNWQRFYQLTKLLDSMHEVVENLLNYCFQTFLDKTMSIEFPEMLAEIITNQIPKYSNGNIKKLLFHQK
Description: Human Glucocorticoid Receptor (GR) Fluorescence Polarisation (FP) Binding Assay. To be noted: Ki from IC50 by ligand depletion correction; displacement of Fluorome GS Red. As for the experimental part: The following is a description of a FP assay for measuring compound inhibition of labelled glucocorticoid binding to the human recombinant GR.
The binding affinity of test compounds was determined using a FP binding assay using human recombinant GR (PanVera P2812) and a fluorescent labelled glucocorticoid ligand (Fluorome GS Red) (PanVera P2894). The presence of inhibitors prevents the formation of a GS Red/GR complex resulting in a decrease in the measured polarisation value. The change in polarisation value in the presence of test compounds is used to calculate the binding affinity of the compound for GR.
This assay was performed in 384 well, black, round-bottom, polypropylene micro titre plates in a final volume of 20 μl. The assay contained 5 μl 1 nM GR (final concentration), 5 μl 0.5 nM Fluorome GS Red (final concentration) in the presence of 10p test compounds. Positive control wells (high polarisation) receive, 10 μl 2% (v:v) DMSO vehicle (1% (v/v) final concentration)+5 μl 1 nM GR and 5 μl 0.5 nM Fluorome GS Red. […] Assay blank background wells (used for normalisation) receive 15 μl 1×GS screening buffer+5 μl GR.
For the IC50 determination (concentration of compound that displaces 50% of the bound GS Red), compounds were tested at eight different concentrations in duplicate in two independently performed experiments. Compounds were prepared as solubilised solids at 10 mM in DMSO. On the day of assay, an 8 point half-log serial dilution (55 μl DMSO+25 μl compound solution) was prepared. A 1:50 dilution (1 μl compound solution+49 μl 1×GR screening buffer) was prepared for each compound. The compounds were prepared at 2× final assay concentration.
The plates were mixed and incubated for 4 hour at room temperature. FP was measured using an Envision Excite plate reader with 535 nm excitation and 590 nm emission interference filters.
Milli-polarisation (mP) values were calculated using the below equation: mP=1000*(S−G*P)/(S+G*P) where S and P are assay blank background subtracted fluorescence units, G=G-factor (1.07).
Compound IC50 values were calculated by plotting a [compound] v. % inhibition curve and fitting the data to a 4-parameter logistic fit equation.
10×GR screening buffer (100 mM potassium phosphate pH 7.4, 200 mM Na2MoO4, 1 mM EDTA, 20% (v/v) DMSO). To prepare 1×GR screening buffer, combine 1 ml 10×GR screening buffer (PanVera P2814)+1 ml stabilising peptide (PanVera P2815)+7.95 ml 4° C. MQ water. Add 50p 1M DTT, vortex and place on ice until use.

The target of the next assay is T2, glucocorticoid receptor (Homo sapiens, UniProt P04150).
T2 construct: endogenous in cells; host or cells: HepG2
T2 sequence (P04150 1-777): T1 sequence (P04150 1-777)
Description: HepG2 Tyrosine Aminotransferase (TAT) Assay. The class given is cell-based. As to the method:
Glucocorticoid mediated activation of TAT occurs by transactivation of glucocorticoid response elements in the TAT promoter by glucocorticoid receptor-agonist complex.
HepG2 cells were cultured using MEME media supplemented with 10% (v/v) foetal bovine serum; 2 mM L-glutamine and 1% (v/v) NEAA at 37° C., 5%/95% (v/v) CO2/air.
Compounds were serially half log diluted in 100% (v/v) dimethylsulphoxide from a 10 mM stock.
HepG2 cells were then lysed with 30 μl of cell lysis buffer containing a protease inhibitor cocktail for 15 minutes at 4° C. […] After 2 hours incubation at 37° C. the reaction was terminated by the addition of 15 μl of 10 M aqueous potassium hydroxide solution, and the plates incubated for a further 30 minutes at 37° C.
[compound] and fitting the data to a 4 parameter logistic equation.

In the case of `Cc1ccnc(C(=O)[C@]23Cc4cnn(-c5ccc(F)cc5)c4C[C@@H]2CCN(S(=O)(=O)c2cnn(C)n2)C3)c1` [Example 2R, ((4aR,8aS)-1-(4-fluorophenyl)-6-((2-methyl-2H-1,2,3-triazol-4-yl)sulfonyl)-4,4a,5,6,7,8,8a,9-octahydro-1H-pyrazolo[3,4-g]isoquinolin-4a-yl)(4-methylpyridin-2-yl)methanone], the Ki (as a rule, a measure of affinity in units of concentration, obtained from inhibition or displacement) on human recombinant GR is less than 0.0005 µM; on glucocorticoid receptor it was less than 0.02 µM.

In the case of `Cn1cc(S(=O)(=O)N2CC[C@H]3Cc4c(cnn4-c4ccc(F)cc4)C[C@]3(C(=O)c3cc(C(F)(F)F)ccn3)C2)nn1` [Example 2P, ((4aR,8aS)-1-(4-fluorophenyl)-6-((1-methyl-1H-1,2,3-triazol-4-yl)sulfonyl)-4,4a,5,6,7,8,8a,9-octahydro-1H-pyrazolo[3,4-g]isoquinolin-4a-yl)(4-(trifluoromethyl)pyridin-2-yl)methanone], the Ki at human recombinant GR is greater than 0.001 µM; on glucocorticoid receptor it was 0.02 to 0.1 µM.

Consider `Cn1ccc(S(=O)(=O)N2CC[C@H]3Cc4c(cnn4-c4ccc(F)cc4)C[C@]3(C(=O)c3cc(C(F)(F)F)ccn3)C2)n1` [Example 2I, ((4aR,8aS)-1-(4-fluorophenyl)-6-((1-methyl-1H-pyrazol-3-yl)sulfonyl)-4,4a,5,6,7,8,8a,9-octahydro-1H-pyrazolo[3,4-g]isoquinolin-4a-yl)(4-(trifluoromethyl)pyridin-2-yl)methanone], for which the Ki on human recombinant GR is 0.0005 to 0.001 µM; at glucocorticoid receptor, 0.02 to 0.1 µM.

With `O=C(c1ccccn1)[C@]12Cc3cnn(-c4ccc(F)cc4)c3C[C@@H]1CCN(S(=O)(=O)c1ccc(C(F)(F)F)cc1)C2` [Example 1A, ((4aR,8aS)-1-(4-fluorophenyl)-6-((4-(trifluoromethyl)phenyl)sulfonyl)-4,4a,5,6,7,8,8a,9-octahydro-1H-pyrazolo[3,4-g]isoquinolin-4a-yl)(pyridin-2-yl)methanone], the figures for the inhibition constant Ki on human recombinant GR and at glucocorticoid receptor were 0.0005 to 0.001 µM and 0.02 to 0.1 µM, respectively.

In the case of `O=C(c1ccccn1)[C@]12Cc3cnn(-c4ccc(F)cc4)c3C[C@@H]1CCN(S(=O)(=O)c1ccc(Cl)c(Cl)c1)C2` [Example 1B, ((4aR,8aS)-6-((3,4-dichlorophenyl)sulfonyl)-1-(4-fluorophenyl)-4,4a,5,6,7,8,8a,9-octahydro-1H-pyrazolo[3,4-g]isoquinolin-4a-yl)(pyridin-2-yl)methanone], the values for the Ki on human recombinant GR and at glucocorticoid receptor were greater than 0.001 µM and 0.02 to 0.1 µM, respectively.

`CCn1ncc(S(=O)(=O)N2CC[C@H]3Cc4c(cnn4-c4ccc(F)cc4)C[C@]3(C(=O)c3cc(C(F)(F)F)ccn3)C2)n1` [Example 2O, ((4aR,8aS)-6-((2-ethyl-2H-1,2,3-triazol-4-yl)sulfonyl)-1-(4-fluorophenyl)-4,4a,5,6,7,8,8a,9-octahydro-1H-pyrazolo[3,4-g]isoquinolin-4a-yl)(4-(trifluoromethyl)pyridin-2-yl)methanone]: the inhibition constant Ki on human recombinant GR was 0.0005 to 0.001 µM; at glucocorticoid receptor, less than 0.02 µM.

On to `Cn1cc(S(=O)(=O)N2CC[C@H]3Cc4c(cnn4-c4ccc(F)cc4)C[C@]3(C(=O)c3cc(C(F)(F)F)ccn3)C2)cn1` [Example 2H, ((4aR,8aS)-1-(4-fluorophenyl)-6-((1-methyl-1H-pyrazol-4-yl)sulfonyl)-4,4a,5,6,7,8,8a,9-octahydro-1H-pyrazolo[3,4-g]isoquinolin-4a-yl)(4-(trifluoromethyl)pyridin-2-yl)methanone], for which the values for the Ki at human recombinant GR and on glucocorticoid receptor were greater than 0.001 µM and 0.02 to 0.1 µM, respectively.

As for `CCCn1cc(S(=O)(=O)N2CC[C@H]3Cc4c(cnn4-c4ccc(F)cc4)C[C@]3(C(=O)c3nccs3)C2)cn1` [Example 2E, ((4aR,8aS)-1-(4-fluorophenyl)-6-((1-propyl-1H-pyrazol-4-yl)sulfonyl)-4,4a,5,6,7,8,8a,9-octahydro-1H-pyrazolo[3,4-g]isoquinolin-4a-yl)(thiazol-2-yl)methanone], the values for the inhibitory constant (Ki) at human recombinant GR and on glucocorticoid receptor were less than 0.0005 µM and less than 0.02 µM, respectively.

For `CCn1ncc(S(=O)(=O)N2CC[C@H]3Cc4c(cnn4-c4ccc(F)cc4)C[C@]3(C(=O)c3ccccn3)C2)n1` [Example 2AB, ((4aR,8aS)-6-((2-ethyl-2H-1,2,3-triazol-4-yl)sulfonyl)-1-(4-fluorophenyl)-4,4a,5,6,7,8,8a,9-octahydro-1H-pyrazolo[3,4-g]isoquinolin-4a-yl)(pyridin-2-yl)methanone], the Ki at human recombinant GR is less than 0.0005 µM; at glucocorticoid receptor it was 0.02 to 0.1 µM.

In the case of `CCCn1ncc(S(=O)(=O)N2CC[C@H]3Cc4c(cnn4-c4ccc(F)cc4)C[C@]3(C(=O)c3cscn3)C2)n1` [Example 2S, ((4aR,8aS)-1-(4-fluorophenyl)-6-((2-propyl-2H-1,2,3-triazol-4-yl)sulfonyl)-4,4a,5,6,7,8,8a,9-octahydro-1H-pyrazolo[3,4-g]isoquinolin-4a-yl)(thiazol-4-yl)methanone], the Ki on human recombinant GR was less than 0.0005 µM; at glucocorticoid receptor, 0.02 to 0.1 µM.

For `CC(C)n1cc(S(=O)(=O)N2CC[C@H]3Cc4c(cnn4-c4ccc(F)cc4)C[C@]3(C(=O)c3ccccn3)C2)nn1` [Example 2AF, ((4aR,8aS)-1-(4-fluorophenyl)-6-((1-isopropyl-1H-1,2,3-triazol-4-yl)sulfonyl)-4,4a,5,6,7,8,8a,9-octahydro-1H-pyrazolo[3,4-g]isoquinolin-4a-yl)(pyridin-2-yl)methanone], the Ki at human recombinant GR is greater than 0.001 µM; on glucocorticoid receptor it was 0.02 to 0.1 µM.

As for `CC(C)n1ncc(S(=O)(=O)N2CC[C@H]3Cc4c(cnn4-c4ccc(F)cc4)C[C@]3(C(=O)c3cc(C(F)(F)F)ccn3)C2)n1` [Example 2AD, ((4aR,8aS)-1-(4-fluorophenyl)-6-((2-isopropyl-2H-1,2,3-triazol-4-yl)sulfonyl)-4,4a,5,6,7,8,8a,9-octahydro-1H-pyrazolo[3,4-g]isoquinolin-4a-yl)(4-(trifluoromethyl)pyridin-2-yl)methanone], the Ki at human recombinant GR was less than 0.0005 µM; on glucocorticoid receptor it was less than 0.02 µM.
